Drawing on PMC3578862, “Single Residue Mutation in Active Site of Serine Acetyltransferase Isoform 3 from Entamoeba histolytica Assists in Partial Regaining of Feedback Inhibition by Cysteine” (PLoS ONE, 2013), this text covers IC50 and Km for three molecules.

The target in data set [1] is T1, Serine acetyltransferase isoform 1 (EhSAT1) (Entamoeba histolytica, UniProt Q9U8X2, H208S).
T1 construct: gene EhSAT
The data set can be described thus: SAT activity assay at […] nm, […] serine. The class given is biochemical.

Data set [2] has as its target T2, Serine acetyltransferase isoform 3 (EhSAT3) (Entamoeba histolytica, UniProt Q401L4, S208H).
T2 construct: gene SAT 3
The data set can be described thus: SAT activity assay at […] nm, […] serine; […] inhibition at […]. The data set is classed as biochemical.

In a further data set the test system is N[C@@H](CO)C(=O)O. Nature of the data set: purified protein. The data set is classed as biochemical, Entamoeba histolytica. To be noted: acetyl coenzyme A active site.

One may read the IC50 as the midpoint of a concentration-inhibition curve. The low end stands for higher potency, the high end for lower potency. With `N[C@@H](CS)C(=O)O` [L-cysteine], the concentration for half-maximal inhibition (IC50) in data set [1] was 170 µM; in data set [2] it was 3500 µM. By Km is commonly meant the concentration of substrate that gives half-maximal velocity. Consider “Serine acetyltransferase isoform 1 (EhSAT1) (Entamoeba histolytica; H208S)”, for which, in the data set on N[C@@H](CO)C(=O)O, the Km turned out to be 68.4 µM. Still for that read-out and setting: to “Serine acetyltransferase isoform 3 (EhSAT3) (Entamoeba histolytica; S208H)” belongs 185.5 µM.
